Measured values as given in patent publication US12161669B2, “Compositions and methods for cell targeting therapies” (UMC UTRECHT HOLDING B.V., priority 2017, dated 2024).

Key:
RhoB GTPase = biological target: T1, RhoB GTPase (Homo sapiens, UniProt P62745); assay: Biolayer interferometry of RhoB binding to BTN3A1 (CD277) intracellular domains; conditions: for kd (1/s) / kd(1/Ms) / Kd: BLI, 1:1 binding model; for Kd: RhoB immobilized on Ni-NTA biosensor, cHDMAPP at 1:1 where named; for RhoB binding to recombinant CD277 intracellular domain constructs: without phosphoantigen
T1 construct: The full length RhoB protein was cloned into the pET 28a vector; thrombin cleavage site (C); made in house; host or cells: Escherichia coli BL21
T1 sequence (O00481 272-513 partner limits assumed): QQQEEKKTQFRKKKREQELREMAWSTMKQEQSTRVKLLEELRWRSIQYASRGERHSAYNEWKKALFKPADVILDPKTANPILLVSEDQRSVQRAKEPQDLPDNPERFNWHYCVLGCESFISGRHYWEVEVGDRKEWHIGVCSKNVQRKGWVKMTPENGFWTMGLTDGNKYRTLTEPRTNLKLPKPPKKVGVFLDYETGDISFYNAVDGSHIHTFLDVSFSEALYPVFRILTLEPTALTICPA
T1 sequence (P62745 1-192 limits assumed): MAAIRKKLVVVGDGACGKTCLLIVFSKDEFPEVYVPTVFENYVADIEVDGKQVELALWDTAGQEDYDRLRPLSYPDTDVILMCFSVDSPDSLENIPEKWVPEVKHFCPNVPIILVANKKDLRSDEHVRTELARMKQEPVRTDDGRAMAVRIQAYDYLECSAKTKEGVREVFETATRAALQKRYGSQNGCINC
Protocol: To determine whether CD277 exists as a homodimer when expressed in a cellular context, and to study RhoB-CD277 interactions at even higher resolution, close interactions by utilizing fluorescence resonance energy transfer (FRET) were examined. Flow cytometry FRET measurements were performed on ABP-sensitive HEK 293 cells, by either overexpressing FRET compatible fusion proteins or labeling endogenous proteins with antibodies coupled to FRET-compatible fluorochromes. […] Biolayer Interferometry (BLI) was used to formally define a possible docking site for RhoB on the intracellular domain of CD277.
The interactions between RhoB and BTN3A1 full-length intracellular domain (BFI) or BTN3A1 B30.2 domain were measured using Biolayer interferometry (BLItz, FortéBio). The BLI buffer used in baseline equilibration and the dissociation step was prepared with 10 mM Hepes pH7.2, 150 mM NaCl, 0.02% azide, 5 mM MgCl2, 4 mM BME. RhoB, at a concentration of 2 mg/ml, was immobilized on the Ni-NTA biosensor hydrated with the BLI buffer using the basic kinetics method with the following parameters: 30 s for baseline, 300 s for association and 300 s for dissociation. The RhoB-mounted biosensor was then blocked by 1 mg/ml BSA and equilibrated with the BLI buffer using a similar method with the following parameters: 30 s for baseline, 120 s for association and 120 s for dissociation. The buffer run served as a reference for the subsequent experiments. […] The ratio between cHDMAPP and BFI or B30.2 domain was kept at 1:1 for these measurements. The rate and affinity constants for binding interactions were analyzed by Biaevulation (Biacore Life Sciences). The data was truncated to 180 s and the ka and kd were fitted simultaneously using 1:1 binding with drift baseline model.

CD277 and F-actin = assay: Colocalization of CD277 and F-actin in HEK 293 cells; assay type: cell-based
Protocol: To determine colocalization between BTN3 molecules and the actin cytoskeleton, HEK 293 cells were grown onto poly-L-lysin-coated coverslips and pretreated with either calpeptin (2 μg/ml) or C3 transferase (20 μg/ml) prior to treating samples with pamidronate Cells were fixed, permeabilized and BTN3 and F-actin were stained with DyLight 680-conjugated BTN3 antibody (clone BT3.1, Novus Biologicals) and Fluorescein-coupled phalloidin (Sigma), respectively. The correlation coefficient between BTN3 and F-actin signal was determined as a measure of colocalization using Volocity software.

CD277 [1] = assay: FRAP of CD277-emGFP membrane mobility in HEK 293 cells; assay type: cell-based; conditions: 293 HEK cells; for CD277 membrane mobility (immobile fraction, FRAP): single agent
Protocol: FRAP analysis was performed as previously described (Harly et al., 2012, Sandstrom et al., 2014). In brief, HEK293FT cells expressing either EmGFP-fused CD277 were laid on m-slides (Ibidi) and analyzed using a Nikon A1 RS confocal microscope (60×NA 1.40 oil immersion objective). Selected rectangular areas were photobleached for 500 ms by using full power of laser intensity (>90% of loss of fluorescence). Images were collected every 5 s, before (30 s) and after (120 s) bleaching using low laser intensity. Images were analyzed with Metamorph 7.5 (Molecular Devices, Universal Imaging) and NIS (Nikon) imaging software. The resulting curves were fitted using one-phase exponential equations.

EBV-LCL 93 cells = assay: IFNγ by Vγ9Vδ2 TCR+ T cells against Rho-modulator pretreated EBV-LCL 93; assay type: cell-based; conditions: target cell pretreatment with Rho activator, in combination with pamidronate or IPP
Protocol: (§1) The impact of RhoB GTPase activity on Vγ9Vδ2 TCR+ T cell activation was assessed by […] different tumor cell lines with either the Rho GTPase activator calpeptin or inhibitor C3 transferase. […] To specify that enzymatic activity of RhoB regulates tumor cell recognition by Vγ9Vδ2 TCR+ T cells, we transfected HEK 293 cells with wildtype or dominant negative form corresponding to the GDP-bound state (RhoB-DN), or with the constitutively active form corresponding to the GTP-bound form (RhoB-CA) of RhoB (Kamon et al., 2006) and used them as target cells for Vγ9Vδ2 TCR+ T cells (FIG. 4E).
(§2) Alternatively, Vγ9Vδ2 TCR-transduced T cells and target cells were cocultured as above in round-bottom 96-well plates, and IFNγ levels in supernatants were measured by ELISA. Where indicated, target cells were pretreated with pamidronate (100 μM), IPP (15 μM), FTI (10 μM), GGTI (50 μM), calpeptin (2 μg/ml) or C3 transferase (20 μg/ml) prior to coincubation. For testing stimulation of WT1 αβTCR-transduced T cells, the HLA-A2+ cell lines EBV-LCL 48 and MZ1851RC were pulsed with 10 μM WT1126−134 peptide.

LCL 48 cells = assay: IFNγ by Vγ9Vδ2 TCR+ T cells against Rho-modulator pretreated EBV-LCL 48; assay type: cell-based; conditions: target cell pretreatment with Rho inhibitor, in combination with pamidronate or IPP
Protocol: as §1, §2

CD277 [2] = assay: Flow cytometry FRET between BODIPY FL-stained membrane and anti-CD277 mAbs (CD277 conformational change), HEK 293 cells; assay type: cell-based; conditions: with ABP
Protocol: Conformational change of BTN3 molecule was determined similarly as described in ([…] et al., 2001). Cells were labeled with 5 ug/ml BODIPY-FL DPHE (donor) (Life Technologies) for 10 minutes on ice and then 10 minutes at 37 C, then washed extensively with ice-cold PBS. Cells were subsequently labeled with mouse anti-CD277 mAbs (either clone #20.1 or #103.2) and Alexa594-conjugated Goat anti-Mouse Fab fragments (Jackson ImmunoResearch). After washing, cells were resuspended in ice cold PBS and measured immediately using a FACS Canto-II flowcytometer (BD). FRET efficiency was calculated from the fractional decrease of the donor fluorescence in the presence of the acceptor.

kd (1/s) (RhoB GTPase) | kd(1/Ms) (RhoB GTPase) | Kd (RhoB GTPase) | RhoB binding to recombinant CD277 intracellular domain constructs (RhoB GTPase) | Molecule | CD277 membrane mobility (immobile fraction, FRAP) (CD277 [1]) | other results
 |  |  |  | C/C(=C\CCP(=O)(O)OP(=O)(O)O)CO [cHDMAPP, (2E)-1-hydroxy-2-methylpent-2-enyl-pyrophosphonate] |  | RhoB binding to BFI in the presence of soluble phosphoantigen (RhoB GTPase; phosphoantigen 1:1 with BFI): almost completely abolished
 |  |  |  | CCCC[C@@H](C=O)NC(=O)[C@H](CC(C)C)NC(=O)OCc1ccccc1 [calpeptin] | induced immobilization of CD277 to similar levels as those of ABP treatment alone | colocalization between CD277 and F-actin (CD277 and F-actin; single agent vs medium): reduced tantalization between CD277 and F-actin to comparable levels observed with ABP treatment; recognition of EBV-LCL 93 cells by Vγ9Vδ2 TCR+ T cells (IFNγ) (EBV-LCL 93 cells): significantly sensitized
 |  |  |  | O=P(O)(O)C(O)(Cn1ccnc1)P(=O)(O)O [zoledronate, zoledronic acid monohydrate] | decreased CD277 membrane mobility | 
 |  |  |  | C3 transferase |  | effect on ABP-induced CD277-actin segregation (CD277 and F-actin; pretreatment before pamidronate): prevented ABP-induced CD277-actin segregation; activation of Vγ9Vδ2 TCR+ T cells by LCL 48 cells (IFNγ) (LCL 48 cells): significantly reduced activation; effect on ABP-induced immobilization of CD277 (CD277 [1]; together with zoledronate): counteracted this ABP-effect; effect on ABP-driven conformational changes of the CD277 homodimer (CD277 [2]): did not prevent
0.206 s⁻¹ | 2020 M⁻¹ s⁻¹ | 102 µM | significantly reduced | RhoB-B30.2: interaction of RhoB with recombinant CD277 B30.2 domain lacking the N terminal connector region |  | 
0.04351 s⁻¹ | 2200 M⁻¹ s⁻¹ | 19.7 µM | detected | RhoB-BFI: interaction of RhoB GTPase with recombinant full length BTN3A1 intracellular domain (BFI) |  | 
